Earlier results in patent US12208104B2, “Pharmaceutical compositions suitable for articular delivery and use thereof in treatment of joint pain” (TAIWAN LIPOSOME CO., LTD., priority 2018, dated 2025).

Test system: cartilage
Conditions: repeated intra-articular injections

Row | SMILES | cartilage damage
1 | C[C@@H]1C[C@H]2[C@@H]3CCC4=CC(=O)C=C[C@]4(C)[C@@]3(F)[C@@H](O)C[C@]2(C)[C@@]1(O)C(=O)CO [dexamethasone] | cartilage damage has been reported
2 | C[C@]12C=CC(=O)C=C1CC[C@H]1[C@@H]3C[C@@H](O)[C@](O)(C(=O)CO)[C@@]3(C)C[C@H](O)[C@@]12F [triamcinolone] | cartilage damage has been reported
